Source: patent publication US11464768B2, “Pimavanserin alone or in combination for use in the treatment of Alzheimer's disease psychosis” (ACADIA Pharmaceuticals Inc., priority 2016, dated 2022)

Columns and labels:
ADP patients [1] = experiment: Twelve-week randomized, double-blind, placebo-controlled study in ADP patients: NPI-NH psychosis score (Domains A and B); assay type: in vivo, human; settings: for improvement in psychosis at day 43 / improvement in psychosis at day 43 (NPI-NH Psychosis subscale): Table 2 Delta; for NPI-NH PSYCHOSIS SCORE at day 43, Effect Size: pimavanserin vs placebo
Description: To determine the score for a given domain, the caregivers rate frequency and severity of the resident's behavior for that particular domain. The frequency is rated on a 0-4 point scale. For example, the frequency is rated as a) 0 for not present; b) 1 for occasional; c) 2 for often; d) 3 for frequent; and e) 4 for very frequent occurrence of the behavior in question. The severity is rated on a 1-3 point scale. For example, the severity is rated as a) 1 for mild; b) 2 for moderate; and 3 for severe. The score of each domain is determined by multiplying the frequency rating score by the severity rating score. The score of each domain ranges from 0 to 12.
A psychosis score on the psychosis subscale is the total score of the score of delusions (Domain A) and hallucinations (Domain B). For example, when the delusions score (Domain A) is 4 and the hallucinations score (Domain B) is 6, the psychosis score is 10. The psychosis score typically ranges from 0 to 24.
A twelve-week, randomized, double-blind, placebo-controlled, single-center study was conducted in ADP patients in nursing homes. A purpose of the study was to evaluate the safety and efficacy of 34 mg pimavanserin compared to placebo in the treatment of ADP.
A total of 181 nursing home patients were enrolled in the study and randomized on a one-to-one basis to receive either 34 mg of pimavanserin or placebo once daily for twelve weeks, following a three-week screening period including brief psycho-social therapy. Patients with Alzheimer's disease (AD) are defined by the National Institute of Neurological and Communicative Disorders and Stroke-Alzheimer's Disease and Related Disorder Association (NINCDS-ADRDA) criteria for possible or probable AD (McKhann et al., Neuro., 1984, vol. 34, 939-944.) The mean age of patients in the study was 86 years.
After completing initial Screening Visit procedures (SV1), patients entered a 3-week screening period with antipsychotic medication washout. During the screening period, the patients received brief psychosocial therapy (BPST; Ballard et al., 2009) following best practice guidelines and safety assessments were performed. After the first Screening Visit (SV1), there were two additional contacts at weekly intervals with the BPST caregiver by phone (SV2 and SV3) to support the patient and the BPST caregiver in this screening phase. Safety assessments were also collected during this phase. At the discretion of the investigator and upon consultation with the Medical Monitor, patients were randomized into the double-blind phase of the study at any time during the screening period if there is a substantial worsening of psychotic symptoms.
Patients were randomized to one of two treatment groups in a 1:1 ratio (pimavanserin 34 mg or placebo), stratified by Baseline Mini-Mental State Examination (MMSE) total score and Neuropsychiatric Inventory-Nursing Home Version (NPI-NH) psychosis score (Domains A and B) (4 levels: MMSE<6 and NPI-NH<12, MMSE>6 and NPI-NH<12, MMSE<6 and NPI-NH>12, MMSE>6 and NPI-NH>12), and entered a 12 week double-blind treatment period.
Nursing home staff administered the study drug to the patient each morning as a single oral dose (2×17 mg tablets) beginning within 24 hours of completion of all baseline assessments (Day 1). During the double-blind treatment period, study visits were performed as follows: Baseline, Day 15, Day 29, Day 43, Day 64, and Day 85 (or early termination). A follow-up telephone safety visit occurred 4 weeks after the last dose of study medication. The NPI-NH psychosis subscale (Delusions+Hallucinations domains) was used to assess psychosis. Behavioral symptoms were assessed using the NPI-NH Total and Individual Behavioral Domain scores and the Cohen-Mansfield Agitation Inventory—Short Form (CMAI-SF). […]

ADP patients [2] = experiment: Same twelve-week study: cognitive status by Mini-Mental State Examination (MMSE); assay type: in vivo, human; settings: 34 mg once daily; 12 week study
Protocol: In some embodiments the effect of the treatment is an antipsychotic effect, for example determined by an improved patient score in the Neuropsychiatric Inventory-Nursing Home Version (NPI-NH) psychosis scale, without impairing cognition, as determined by Mini-Mental State Examiner (MMSE) score. In some embodiment the antipsychotic effect without impairing cognition is determined over the 12 weeks of treatment. The MMSE is a brief 30-point questionnaire that is used to quantitatively assess cognition (Folstein et al., Journal of Psychiatric Research. 12 (3): 189-98, 1975). The MMSE test includes simple questions and problems in a number of areas: the time and place of the test, repeating lists of words, arithmetic, language use and comprehension, and copying a drawing. […]
Each patient participated in a 3-week screening period, a 12-week double-blind treatment period, and a 4-week follow-up period. […] The safety of subjects was assessed by monitoring adverse events, physical examinations, vital signs, clinical laboratory tests (hematology, clinical chemistry, and urinalysis), and electrocardiograms. Furthermore cognitive status was assessed via MMSE.

[3] = system: DOI ((±)-2,5-dimethoxy-4-iodoamphetamine, a serotonin agonist) induced head twitches; settings: rat; effective in these models at oral doses of 3 and 10 mg/kg; cited from earlier work
[4] = system: hyperactivity induced by the N-methyl-D-aspartate antagonist MK-801; settings: mice; effective in these models at oral doses of 3 and 10 mg/kg; cited from earlier work

CC(C)COc1ccc(CNC(=O)N(Cc2ccc(F)cc2)C2CCN(C)CC2)cc1 [Pimavanserin, N-(1-methylpiperidin-4-yl)-N-(4-fluorophenylmethyl)-N′-(4-(2-methylpropyloxy)phenylmethyl)carbamide]
durability of efficacy (ADP patients [1]; 34 mg once daily, 12 week study): demonstrated an efficacy throughout the 12 week study | NPI-NH PSYCHOSIS SCORE at day 43, Pimavanserin Group (change from baseline) (ADP patients [1]; 34 mg once daily, subgroup Baseline Agitation/Aggression Score <6 (n = 85), post-hoc analysis): −1.40 | NPI-NH PSYCHOSIS SCORE at day 43, Pimavanserin Group (change from baseline) (ADP patients [1]; 34 mg once daily, subgroup Baseline Agitation/Aggression Score ≥6 (n = 93), post-hoc analysis): −6.09 | NPI-NH PSYCHOSIS SCORE at day 43, Pimavanserin Group (change from baseline) (ADP patients [1]; 34 mg once daily, subgroup Baseline NPI-NH Psychosis Score <12 (n = 57), negative = improvement): −0.58 | NPI-NH PSYCHOSIS SCORE at day 43, Pimavanserin Group (change from baseline) (ADP patients [1]; 34 mg once daily, subgroup Baseline NPI-NH Psychosis Score ≥12 & Agitation/Aggression Score ≥6 (n = 38), post-hoc analysis): −10.93 | NPI-NH PSYCHOSIS SCORE at day 43, Pimavanserin Group (change from baseline) (ADP patients [1]; 34 mg once daily, subgroup Baseline NPI-NH Psychosis score ≥12 (n = 121), negative = improvement): −10.15 | NPI-NH PSYCHOSIS SCORE at day 43, Pimavanserin Group (change from baseline) (ADP patients [1]; 34 mg once daily, subgroup No Prior Anti-psychotic use (n = 162)): −4.15 | NPI-NH PSYCHOSIS SCORE at day 43, Pimavanserin Group (change from baseline) (ADP patients [1]; 34 mg once daily, subgroup Prior Anti-psychotic use (n = 16)): −1.52 | improvement in psychosis, NPI-NH Psychosis score (combined hallucinations and delusions domains), primary endpoint (ADP patients [1]; 34 mg once daily, week 6, all patients, baseline mean 9.52, placebo 1.93 point, p=0.0451): 3.76 point | improvement in psychosis at day 43 (ADP patients [1]; baseline NPI-NH Psychosis score of 12 or greater and baseline Agitation/Aggression score of 6 or greater, p-value=0.0010): 7.18 | effect on NPI-NH psychosis score (in words) (ADP patients [1]; baseline NPI-NH psychosis score of 12 or greater and baseline Agitation/Aggression score of 6 or greater, p=0.0010): effectively reduced | improvement in psychosis at day 43 (ADP patients [1]; patients having a baseline NPI-NH Agitation/Aggression score of 6 or greater, p-value=0.0010): 4.41 point | effect on NPI-NH psychosis score (in words) (ADP patients [1]; patients having a baseline NPI-NH Agitation/Aggression score of 6 or greater, p=0.001): effectively reduced | aggravating in psychosis at day 43 (ADP patients [1]; patients having a baseline NPI-NH Agitation/Aggression score of less than 6, p-value=NS): 0.42 | improvement in psychosis at day 43 (NPI-NH Psychosis subscale) (ADP patients [1]; patients having a baseline NPI-NH Psychosis score of 12 or greater, p-value=0.0114): 4.43 point | effect on NPI-NH psychosis score (in words) (ADP patients [1]; patients having a baseline NPI-NH psychosis score of 12 or greater, p=0.0114): effectively reduced | improvement in psychosis at day 43 (NPI-NH Psychosis subscale) (ADP patients [1]; patients having a baseline NPI-NH psychosis score of less than 12, p-value=NS): 0.42 | improvement in psychosis at day 43 (ADP patients [1]; patients that had anti-psychotic use prior to the baseline measurement on day 0, p-value=NS): 6.53 point | effect on NPI-NH psychosis score (in words) (ADP patients [1]; patients who had prior anti-psychotic use): effectively reduced | reduction of mean NPI-NH Psychosis score from baseline (ADP patients [1]; pimavanserin arm, baseline NPI-NH Psychosis score of 12 or greater, baseline 15.30, day 43): 66.3% | mean NPI-NH Psychosis score at day 43 (ADP patients [1]; pimavanserin arm, baseline NPI-NH Psychosis score of 12 or greater, baseline score 15.30): 5.15 | NPI-NH PSYCHOSIS SCORE at day 43, Effect Size (ADP patients [1]; subgroup Baseline Agitation/Aggression Score <6 (n = 85), post-hoc): 0.122 | NPI-NH PSYCHOSIS SCORE at day 43, Effect Size (ADP patients [1]; subgroup Baseline Agitation/Aggression Score ≥6 (n = 93), post-hoc): −0.778 | NPI-NH PSYCHOSIS SCORE at day 43, Effect Size (ADP patients [1]; subgroup Baseline NPI-NH Psychosis Score <12 (n = 57)): −0.077 | NPI-NH PSYCHOSIS SCORE at day 43, Effect Size (ADP patients [1]; subgroup Baseline NPI-NH Psychosis Score ≥12 & Agitation/Aggression Score ≥6 (n = 38), post-hoc): −1.225 | NPI-NH PSYCHOSIS SCORE at day 43, Effect Size (ADP patients [1]; subgroup Baseline NPI-NH Psychosis score ≥12 (n = 121)): −0.734 | NPI-NH PSYCHOSIS SCORE at day 43, Effect Size (ADP patients [1]; subgroup No Prior Anti-psychotic use (n = 162)): −0.351 | NPI-NH PSYCHOSIS SCORE at day 43, Effect Size (ADP patients [1]; subgroup Prior Anti-psychotic use (n = 16)): −0.905 | NPI-NH PSYCHOSIS SCORE at day 43, Delta (difference between placebo group and pimavanserin group in change from baseline) (ADP patients [1]; subgroup Baseline Agitation/Aggression Score <6 (n = 85), post-hoc, P-Value NS): 0.68 | NPI-NH PSYCHOSIS SCORE at day 43, Delta (difference between placebo group and pimavanserin group in change from baseline) (ADP patients [1]; subgroup Baseline Agitation/Aggression Score ≥6 (n = 93), post-hoc, P-Value 0.0010): −4.41 | NPI-NH PSYCHOSIS SCORE at day 43, Delta (difference between placebo group and pimavanserin group in change from baseline) (ADP patients [1]; subgroup Baseline NPI-NH Psychosis Score <12 (n = 57), P-Value NS): −0.42 | NPI-NH PSYCHOSIS SCORE at day 43, Delta (difference between placebo group and pimavanserin group in change from baseline) (ADP patients [1]; subgroup Baseline NPI-NH Psychosis Score ≥12 & Agitation/Aggression Score ≥6 (n = 38), post-hoc, P-Value 0.0010): −7.18 | NPI-NH PSYCHOSIS SCORE at day 43, Delta (difference between placebo group and pimavanserin group in change from baseline) (ADP patients [1]; subgroup Baseline NPI-NH Psychosis score ≥12 (n = 121), P-Value 0.0114): −4.43 | NPI-NH PSYCHOSIS SCORE at day 43, Delta (difference between placebo group and pimavanserin group in change from baseline) (ADP patients [1]; subgroup No Prior Anti-psychotic use (n = 162), P-Value 0.0374): −1.90 | NPI-NH PSYCHOSIS SCORE at day 43, Delta (difference between placebo group and pimavanserin group in change from baseline) (ADP patients [1]; subgroup Prior Anti-psychotic use (n = 16), P-Value NS): −6.53 | treatment effect in patients with a concomitant Selective Serotonin Reuptake Inhibitor (SSRI) use (ADP patients [1]; subgroup analysis, compared with no concomitant SSRI use): treatment effect larger than those with no concomitant SSRI use | efficacious effect relative to placebo (ADP patients [1]; worded as an embodiment): about 2 times | cognition as measured by the Mini-Mental State Examination (MMSE) score (ADP patients [2]): did not impair cognition | activity in DOI induced head twitches [3]: active | attenuation of hyperactivity induced by MK-801 [4]: active
